BindingDB's records for doi:10.7270/Q23N21VG (Nmmlsc, 2009)

Target: T1, GTPase KRas [1-37] (Homo sapiens, UniProt G3V5T7)
T1 construct: 1-37
Assay: inhibitors of GTP binding, activated Ras, SAR follow-up, biochemical, additional analogs, activated mutant, multiplex flow cytometry, Ki (AID 2043)

T1 sequence (G3V5T7 whole entry): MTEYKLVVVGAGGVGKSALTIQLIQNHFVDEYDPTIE

| Compound | EC50 [µM] |
| --- | --- |
| O=C1N=c2c(Cl)cccc2=C1c1[nH]c2ccccc2c1NO [7-chloro-3-[3-(hydroxyamino)-1H-indol-2-yl]-2-indolone] | > 30 |
| O=C1Nc2ccc(Br)cc2C1=C1Nc2ccccc2C1=O | > 30 |
| O=C1Nc2ccccc2/C1=C1/Nc2ccccc2C1=O [2-[(3Z)-2-oxo-2,3-dihydro-1H-indol-3-ylidene]-2,3-dihydro-1H-indol-3-one] | > 30 |
| O=C1NC(=O)/C(=C2/C(=O)Nc3ccccc32)N1 | > 30 |
| O=C1N=c2ccccc2=C1c1[nH]c2ccccc2c1NO [3-[3-(hydroxyamino)-1H-indol-2-yl]-2-indolone] | > 30 |
| O=C1N=c2ccc(Br)cc2=C1c1[nH]c2ccccc2c1NO [5-bromanyl-3-[3-(oxidanylamino)-1H-indol-2-yl]indol-2-one] | > 30 |
| O=C1N=c2c(F)cccc2=C1c1[nH]c2ccccc2c1NO [7-fluoro-3-[3-(hydroxyamino)-1H-indol-2-yl]-2-indolone] | > 30 |
| O=C1NC(=S)N/C1=C1\C(=O)Nc2ccccc21 [(3Z)-3-(5-oxo-2-sulfanylideneimidazolidin-4-ylidene)-1H-indol-2-one] | > 30 |
| O=C1Nc2c(Br)cccc2C1=C1Nc2ccccc2C1=O | > 30 |
| O=C1N=c2c(Br)cccc2=C1c1[nH]c2ccccc2c1NO [7-bromanyl-3-[3-(oxidanylamino)-1H-indol-2-yl]indol-2-one] | > 30 |
| O=C1Nc2c(Cl)cccc2C1=C1Nc2ccccc2C1=O | > 30 |
| O=C1Nc2c(F)cccc2C1=C1Nc2ccccc2C1=O | > 30 |
